Source: US20240366564A1, “Use of Chlorophyll Derivatives for the Treatment of SARS-CoV-2 Infection” (priority 2021, published 2024)

Assays:
[1] = system: SARS-CoV-2 USA-WA1/2020 virus; assay type: cell-based
[2] = system: SARS-CoV-2 alpha variant (B.1.1.7 lineage); assay type: cell-based

C=Cc1c(C)c2cc3nc(c4c5[nH]c(cc6nc(cc1[nH]2)C(C)=C6CC)c(C)c5C(=O)[C@@H]4C(=O)OC)[C@@H](CCC(=O)O)[C@@H]3C [Pheophorbide A]
inhibition of SARS-CoV-2 infection, summary of FIGS. 5-10 [1]: inhibits SARS-CoV-2 infection in a dose-dependent manner
effect of photoactivation on inhibition of infection [2]: enhanced with photoactivation
inhibition of SARS-CoV-2 infection in culture [2]: significantly inhibits
